Laboratory results taken from ChEMBL document CHEMBL1949661, “Hit to lead evaluation of 1,2,3-triazolo[4,5-b]pyridines as PIM kinase inhibitors” (Bioorg Med Chem Lett, 2012).

What was measured:
[1] = Metabolic stability in CD-1 mouse liver microsomes assessed as compound remaining at 1 uM after 15 mins; type: ADME, Microsome; details: read-out: Stability
[2] = Metabolic stability in Sprague-Dawley rat liver microsomes assessed as compound remaining at 1 uM after 15 mins; type: ADME, Microsome; details: read-out: Stability
[3] = Metabolic stability in human liver microsomes assessed as compound remaining at 1 uM after 15 mins; type: ADME, Microsome; details: read-out: Stability
[4] = Plasma clearance in BALB/C mouse at 5 mg/kg, iv; type: ADME, organism-based; design: dose 5 mg/kg, route intravenous
[5] = Half life in BALB/C mouse plasma at 5 mg/kg, iv; type: ADME, organism-based; design: dose 5 mg/kg, route intravenous

remaining at […], 1 µM [1]: 80%
remaining at […], 1 µM [2]: 91%
remaining at […], 1 µM [3]: 97%
clearance [4]: 54.7 mL/min/kg
half-life [5]: 57 min
Structure (SMILES): COc1cc(NCC2CCNCC2)nc2c1nnn2-c1cccc(OC(F)(F)F)c1
